Results: patent publication US20240398818A1, “Cardiosafe Antidiabetic Therapy” (priority 2018, published 2024)

Tested on: adult patients with early type 2 diabetes mellitus and increased CV risk or established complications
Experiment: Cardiovascular Safety Trial (linagliptin versus glimepiride)
Type: in vivo
Procedure: The effect of linagliptin on cardiovascular risk in adult patients with early type 2 diabetes mellitus and increased CV risk or established complications was evaluated in this Cardiovascular Safety Trial, a multi-center, multi-national, randomized, double-blind parallel group trial. The trial compared the risk of experiencing a major adverse cardiovascular event (MACE) between linagliptin and glimepiride when these were added to standard of care (including background therapy with metformin) based on regional standards for HbA1c and CV risk factors. The trial was event driven and patients were followed until at least 631 primary outcome events accrued.
A total of 6033 patients were treated (linagliptin 5 mg=3023; glimepiride 1 mg to 4 mg=3010) and followed for a median of 6.25 years (median time on treatment 5.9 years). Approximately 73% of the study population was Caucasian, 18% was Asian, and 5% was Black. The mean age was 64 years and 60% were male.
At baseline, disease characteristics were balanced. […] The trial population included 2030 (34%) patients ≥70 years of age, 2089 (35%) patients with cardiovascular disease, and 1130 (19%) patients with renal impairment with an eGFR <60 mL/min/1.73 m2 at baseline. Overall, the previous use of diabetes medications was balanced across treatment groups (metformin 83% continued as background therapy, sulfonylurea 28% discontinued prior to randomization), patients on insulin were excluded. The use of medications to reduce cardiovascular risk was also balanced (aspirin 47%, statins 65%, ACE inhibitors or ARBs 74%, beta blockers 39%, and calcium channel blockers 30%).
The primary endpoint in this Cardiovascular Safety Trial was the time to first occurrence of three point (3P) MACE. A major adverse cardiac event was defined as a cardiovascular death or a nonfatal myocardial infarction (MI) or a nonfatal stroke. The statistical analysis plan tested for non-inferiority for the occurrence of 3P MACE. The key secondary endpoint evaluated the composite of treatment sustainability defined as the proportion of patients on study treatment, that maintain glycemic control (HbA1c≤7.0%) without need for additional antidiabetic drug therapy (rescue medication), without any moderate (symptomatic with glucose value <70 mg/dL) or severe (requiring assistance) hypoglycemic episodes, and without >2% weight gain from baseline.
Cardiovascular Outcome Trial of Linagliptin Versus Glimepriride in Type 2 Diabetes—assessing long-term cardiovascular impact of linagliptin versus the sulphonylurea glimepiride in subjects with early type 2 diabetes and increased cardiovascular risk or established complications. […]
Type 2 diabetes patient with insufficient glycemic control (naïve or currently treated (mono or dual therapy) with e.g. metformin and/or an alpha-glucosidase inhibitor (e.g. having HbA1c 6.5-8.5%), or currently treated (mono or dual therapy) with e.g. a sulphonylurea or glinide, with or without metformin or an alpha-glucosidase inhibitor (e.g. having HbA1c 6.5-7.5%)) and increased or high risk of cardiovascular events, e.g. defined as one or more of risk factors A), B), C) and D) indicated below, are randomized* and treated over a lengthy period (e.g. up to 432 weeks) with linagliptin (5 mg, q.d., optionally in combination with one or more other active substances, e.g. such as added to existing antidiabetic background) and compared with patients treated with the sulphonylurea glimepiride (1-4 mg once daily). * Upon randomization, if a patient is on a SU or glinide, this secretagogue therapy is discontinued and replaced with study medication. For patients not on a secretagogue, study medication is added to the existing regimen.
Time to first occurrence of any of the following adjudicated components of the primary composite endpoint: […]

[1] = baseline to Final Visit, observed cases including values after rescue medication
[2] = both, human, in vivo, 5.9 years
[3] = both, human, in vivo, 6.25 years
[4] = component of secondary composite
[5] = from end of titration (16 weeks) to final visit
[6] = median follow-up 6.25 years, listed as linagliptin

CC#CCn1c(N2CCC[C@@H](N)C2)nc2c1c(=O)n(Cc1nc(C)c3ccccc3n1)c(=O)n2C [Linagliptin, 1-[(4-methyl-quinazolin-2-yl)methyl]-3-methyl-7-(2-butyn-1-yl)-8-(3-(R)-amino-piperidin-1-yl)-xanthine]
patients with macroalbuminuria (>300 mg/g) (at Final Visit): 1.4% | patients with microalbuminuria (≥30 to ≤300 mg/g) (at Final Visit): 14.1% | patients with normal UACR (<30 mg/g) (at baseline and at Final Visit): 58.4% | HBA1c, Change from baseline, adjusted mean (baseline to Final Visit, all observed cases): 0.06% | Creatinine, Change from baseline, adjusted mean [1]: 0.08 mg/dL | HDL, Change from baseline, adjusted mean [1]: 0.7 mg/dL | LDL, Change from baseline, adjusted mean [1]: -6.1 mg/dL | Total cholesterol, Change from baseline, adjusted mean [1]: -5.4 mg/dL | Triglyceride, Change from baseline, adjusted mean [1]: 1.7 mg/dL | Urinary albumin, Change from baseline, adjusted mean [1]: 43.4 mg/dL | third key secondary endpoint of treatment sustainability (on medication, HbA1c≤7.0%, no rescue, no >2% weight gain), responders (between Visit 6 and Final Visit): 17.4% | Hospitalization for heart failure (HHF), Incidence Rate per 1000 PY (both, human, in vivo): 6.4 per 1000 PY | Hospitalization for heart failure (HHF), Number of Subjects (both, human, in vivo): 112 | Moderate/severe hypoglycaemic episodes, odds ratio (both, human, in vivo): 0.16 | Patients with any moderate/severe hypoglycemic episodes, Number of Subjects (both, human, in vivo): 163 | Patients with any moderate/severe hypoglycemic episodes, Subjects (%) (both, human, in vivo): 5.6% | Secondary CV composite (4P-MACE), Incidence Rate per 1000 PY (both, human, in vivo): 23.4 per 1000 PY | rate of moderate or severe hypoglycemia [2]: 6.5% | severe hypoglycemia (requiring assistance) [2]: 0.3% | Premature discontinuation from trial medication due to adverse events [3]: 15.1% | Primary CV composite (3P-MACE), Hazard Ratio [3]: 0.98 | Primary CV composite (3P-MACE), Incidence Rate per 1000 PY [3]: 20.7 per 1000 PY | Secondary CV composite (4P-MACE), Hazard Ratio [3]: 0.99 | all-cause mortality, incidence rate per 1000 years at risk [3]: 16.8 per 1000 years at risk | any adjudicated event (secondary CV endpoint), % of patients [3]: 17.1% | any adjudicated event, HR [3]: 0.96 | hospitalisation for heart failure combined with CV death, incidence rate per 1000 years at risk [3]: 13.4 per 1000 years at risk | hospitalisation for heart failure, incidence rate per 1000 years at risk [3]: 6.4 per 1000 years at risk | investigator-reported heart failure AEs, % of patients [3]: 5.5% | investigator-reported heart failure AEs, HR [3]: 1.06 | investigator-reported heart failure AEs, incidence rate per 1000 years at risk [3]: 9.5 per 1000 years at risk | non-CV death, % of patients [3]: 4.6% | non-CV death, incidence rate per 1000 years at risk [3]: 7.6 per 1000 years at risk | proportion of patients with CV death contributing to the 3P-MACE [3]: 4.3% | proportion of patients with CV death contributing to the 4P-MACE [3]: 4.1% | proportion of patients with hospitalisation for unstable angina pectoris contributing to the 4P-MACE [3]: 1.9% | proportion of patients with non-fatal MI contributing to the 3P-MACE [3]: 4.7% | proportion of patients with non-fatal MI contributing to the 4P-MACE [3]: 4.4% | proportion of patients with non-fatal stroke contributing to the 3P-MACE [3]: 2.8% | proportion of patients with non-fatal stroke contributing to the 4P-MACE [3]: 2.8% | Creatinine, Comparison vs. glimepiride, Adjusted mean (change baseline to Final Visit): -0.01 mg/dL | FPG, Comparison vs. glimepiride, Adjusted mean (change baseline to Final Visit): -7.3 mg/dL | HBA1c, Comparison vs. glimepiride, Adjusted mean (change baseline to Final Visit): −0.09% | HDL, Comparison vs. glimepiride, Adjusted mean (change baseline to Final Visit): 0.5 mg/dL | LDL, Comparison vs. glimepiride, Adjusted mean (change baseline to Final Visit): 0.4 mg/dL | Total cholesterol, Comparison vs. glimepiride, Adjusted mean (change baseline to Final Visit): -0.4 mg/dL | Triglyceride, Comparison vs. glimepiride, Adjusted mean (change baseline to Final Visit): -3.5 mg/dL | Urinary albumin, Comparison vs. glimepiride, Adjusted mean (change baseline to Final Visit): -1.9 mg/dL | Patients with maintained glycemic control (HbA1c ≤7.0%), Number of Subjects [4]: 648 | Patients with maintained glycemic control (HbA1c ≤7.0%), Subjects (%) [4]: 21.5% | Patients with ≤2% weight gain, Number of Subjects [4]: 775 | Patients with ≤2% weight gain, Subjects (%) [4]: 25.7% | Secondary composite of treatment sustainability (on treatment, HbA1c ≤7.0%, no rescue, no moderate/severe hypoglycemic episodes, no >2% weight gain), Number of Subjects [5]: 481 | Secondary composite of treatment sustainability (second key secondary endpoint), Subjects (%) [5]: 16.0% | first intake of rescue medication, incidence rate per 1000 years at risk (in vivo): 128.6 per 1000 years at risk | rate of patients who used rescue medication (in vivo): 49.3% | safety profile in this trial population (in words) (in vivo): no new safety signal | time to 3P-MACE, non-inferiority test (in words) (in vivo): non-inferior | weight, adjusted mean difference (linagliptin compared with glimepiride over time): -1.61 kg | All-cause mortality, Hazard Ratio (linagliptin vs glimepiride): 0.91 | HHF or CV death, Hazard Ratio (linagliptin vs glimepiride): 1.00 | non-CV death, hazard ratio (linagliptin vs glimepiride): 0.82 | third key secondary endpoint of treatment sustainability, OR (linagliptin vs glimepiride): 1.29 | HHF or CV death, Hazard Ratio (linagliptin vs glimepiride, listed as linagliptin): 1.00 | Secondary composite of treatment sustainability (second key secondary endpoint), Odds Ratio (linagliptin vs glimepiride, logistic regression): 1.68 | All-cause mortality, Incidence Rate per 1000 PY (median follow-up 6.25 years): 16.8 per 1000 PY | All-cause mortality, Number of Subjects (median follow-up 6.25 years): 308 | All-cause mortality, Subjects (%) (median follow-up 6.25 years): (10.2) % | HHF or CV death, Incidence Rate per 1000 PY (median follow-up 6.25 years): 13.4 per 1000 PY | HHF or CV death, Number of Subjects (median follow-up 6.25 years): 236 | HHF or CV death, Subjects (%) (median follow-up 6.25 years): (7.8) % | Secondary CV composite (cardiovascular death, non-fatal MI, non-fatal stroke and hospitalization for unstable angina; 4P-MACE), Number of Subjects (median follow-up 6.25 years): 398 | Primary CV composite (cardiovascular death, non-fatal MI, non-fatal stroke; 3P-MACE), Number of Subjects (median follow-up 6.25 years, added to standard of care): 356 | All-cause mortality, Subjects (%) [6]: 10.2% | HHF or CV death, Subjects (%) [6]: 7.8% | weight change (in words) (over time): modest decrease in weight
